# Assay results: patent US4048334A, “Active derivatives of methylamino in therapeutic compositions and methods of use” (priority 1974, dated 1977)
# Experiments:
# [1] = test system: reserpine-induced catatonia; assay: Inhibition of reserpine-induced catatonia; type: in vivo, rat (male, OFA strain); conditions: for Inhibition of reserpine-induced catatonia: 30 min before reserpine
# Method: 1. Inhibition of reserpine-induced catatonia
# After sufficient doses of reserpine have been administered to the rat, a series of symptoms occur, more particularly ptosis, catatonia and a drop in central temperature. These symptoms are caused by the depletion of the intragranular reserve pool of boigenetic amines at the synaptic terminals.
# An oral dose of the compound to be studied in aqueous solution was administered to batches of 10 male rats of the OFA strain weighing about 150 to 200 g. Thirty minutes later a dose of 5 mg/kg of reserpine was given by intraperitoneal route. Three hours after the injection of reserpine, the animals were suspended by the four paws to a horizontally stretched wire fixed at 15 cm from the ground. The catatonic animals were those which maintained the position so given for at least 30 seconds. […] The maximum score was therefore 10 per batch. An identical trial was undertaken with control animals which received reserpine but none of the compounds being studied.
# [2] = test system: neuroleptic-induced catatonia; assay: Inhibition of neuroleptic-induced catatonia (prochlorperazine); type: in vivo, rat (male, OFA strain); conditions: for Inhibition of the neuroleptic-induced catatonia: 30 min before prochlorperazine; for activity compared with amantadine, neuroleptic-induced catatonia: versus amantadine
# Method: 2. Inhibition of neuroleptic-induced catatonia
# The blocking of dopaminergic receptors by neuroleptics in the extra-pyramidal system induces catatonia in the rat. Catatonia is differentiated from sedative properties by means of the test used hereabove for reserpine-induced catatonia. The same system of scoring was also employed in the present case.
# An oral dose of the compound to be studied in aqueous solution was administered to batches of 10 male rats of the OFA strain weighing about 150 to 200 g. […] Three hours after the injection of this latter compound, catatonia was measured. An identical trial was also carried out with control animals which received prochlorperazine but none of the compounds under study.
# The scoring system, used was that given hereabove in Table I.
# [3] = test system: isolated duodenum of the rat; assay: MAGNUS test: inhibition of acetylcholine spasm (cholinolytic / spasmolytic activity in vitro)
# Source text: This test consists in determining the dose of acetylcholine which, when added to the bath, provokes spasm of the isolated duodenum of the rat. The next step consists in determining the dose of the compound under study which, when added to the bath 30 seconds before the acetylcholine, reduces the spasm.
structure (smiles),measurement,setting,value
"CCCC(N)(CC)CC [Compound 14, 1,1-Diethyl-n-butylamine]",Inhibition of reserpine-induced catatonia,[1]; 50 mg/kg oral,3 (70 to 80% inhibition of catatonia in comparison with the controls (namely a score of 2 or 3 per studied batch))
same,Inhibition of the neuroleptic-induced catatonia,[2]; 50 mg/kg oral,3 (70 to 80% inhibition of catatonia in comparison with the controls (namely a score of 2 or 3 per studied batch))
"CCCCC(C)(N)CC(C)C (stereo not drawn) [Compound 8, 1-Methyl-1-isobutyl-n-pentylamine]",Inhibition of reserpine-induced catatonia,[1]; 20 mg/kg oral,1 (20 to 30% inhibition of catatonia in comparison with the controls (namely a score of 7 to 8 per studied batch))
same,Inhibition of the neuroleptic-induced catatonia,[2]; 50 mg/kg oral,4 (100% inhibition of catatonia in comparison with the controls (namely a score of 0 per studied batch))
same,"activity compared with amantadine, neuroleptic-induced catatonia",[2],twice as active
"CCCC(N)(CC)CC(C)C (stereo not drawn) [Compound 3, 1-Ethyl-1-isobutyl-n-butylamine]",Inhibition of reserpine-induced catatonia,[1]; 20 mg/kg oral,3 (70 to 80% inhibition of catatonia in comparison with the controls (namely a score of 2 or 3 per studied batch))
same,Inhibition of the neuroleptic-induced catatonia,[2]; 20 mg/kg oral,3 (70 to 80% inhibition of catatonia in comparison with the controls (namely a score of 2 or 3 per studied batch))
"CCC#CC(N)(CC)CC [Compound 22, 1,1-Diethyl-2-pentyn-1-ylamine]",Inhibition of reserpine-induced catatonia,[1]; 60 mg/kg oral,1 (20 to 30% inhibition of catatonia in comparison with the controls (namely a score of 7 to 8 per studied batch))
same,Inhibition of the neuroleptic-induced catatonia,[2]; 30 mg/kg oral,1 (20 to 30% inhibition of catatonia in comparison with the controls (namely a score of 7 to 8 per studied batch))
"C=CCC(N)(CC=C)CC=C [Compound 11, 1,1-Di-(2-propen-1-yl)-3-buten-1-ylamine]",Inhibition of reserpine-induced catatonia,[1]; 20 mg/kg oral,1 (20 to 30% inhibition of catatonia in comparison with the controls (namely a score of 7 to 8 per studied batch))
same,Inhibition of the neuroleptic-induced catatonia,[2]; 20 mg/kg oral,1 (20 to 30% inhibition of catatonia in comparison with the controls (namely a score of 7 to 8 per studied batch))
CCCC(N)(CCC)CCC,"score, reserpine-induced catatonia",[1]; 3 mg/kg,4 (100% inhibition of catatonia in comparison with the controls (namely a score of 0 per studied batch))
same,"score, neuroleptic-induced catatonia",[2]; 3 mg/kg,4 (100% inhibition of catatonia in comparison with the controls (namely a score of 0 per studied batch))
"CCCCC(C)CC(C)(C)N (stereo not drawn) [Compound 13, 1,1,3-Trimethyl-n-heptylamine]",Inhibition of reserpine-induced catatonia,[1]; 25 mg/kg oral,1 (20 to 30% inhibition of catatonia in comparison with the controls (namely a score of 7 to 8 per studied batch))
same,Inhibition of the neuroleptic-induced catatonia,[2]; 50 mg/kg oral,1 (20 to 30% inhibition of catatonia in comparison with the controls (namely a score of 7 to 8 per studied batch))
"CCCC(N)(CCC)CC(C)C [Compound 5, 1-n-Propyl-1-isobutyl-n-butylamine]",Inhibition of reserpine-induced catatonia,[1]; 20 mg/kg oral,2 (50% inhibition of catationia in comprison with the controls (namely a score of 5 per studied batch))
same,Inhibition of the neuroleptic-induced catatonia,[2]; 20 mg/kg oral,4 (100% inhibition of catatonia in comparison with the controls (namely a score of 0 per studied batch))
same,"activity compared with amantadine, neuroleptic-induced catatonia",[2],five times more active than amantadine
"CCCC(N)(CCC)C(C)C [Compound 19, 1-n-Propyl-1-isopropyl-n-butylamine]",Inhibition of reserpine-induced catatonia,[1]; 6 mg/kg oral,3 (70 to 80% inhibition of catatonia in comparison with the controls (namely a score of 2 or 3 per studied batch))
same,Inhibition of the neuroleptic-induced catatonia,[2]; 6 mg/kg oral,3 (70 to 80% inhibition of catatonia in comparison with the controls (namely a score of 2 or 3 per studied batch))
"CCC=CC(N)(CCC)CCC [Compound 25, 1,1-Di-n-propyl-2-penten-1-ylamine]",Inhibition of reserpine-induced catatonia,[1]; 6 mg/kg oral,3 (70 to 80% inhibition of catatonia in comparison with the controls (namely a score of 2 or 3 per studied batch))
same,Inhibition of the neuroleptic-induced catatonia,[2]; 6 mg/kg oral,3 (70 to 80% inhibition of catatonia in comparison with the controls (namely a score of 2 or 3 per studied batch))
"CCCC(N)(CC(C)C)CC(C)C [Compound 18, 1,1-Diisobutyl-n-butylamine]",Inhibition of reserpine-induced catatonia,[1]; 12 mg/kg oral,2 (50% inhibition of catationia in comprison with the controls (namely a score of 5 per studied batch))
same,Inhibition of the neuroleptic-induced catatonia,[2]; 12 mg/kg oral,1 (20 to 30% inhibition of catatonia in comparison with the controls (namely a score of 7 to 8 per studied batch))
"C#CCC(N)(CCC)CCC [Compound 26, 1,1-Di-n-propyl-3-butyn-1-ylamine]",Inhibition of reserpine-induced catatonia,[1]; 30 mg/kg oral,1 (20 to 30% inhibition of catatonia in comparison with the controls (namely a score of 7 to 8 per studied batch))
same,Inhibition of the neuroleptic-induced catatonia,[2]; 30 mg/kg oral,4 (100% inhibition of catatonia in comparison with the controls (namely a score of 0 per studied batch))
"CCC#CC(N)(CCC)CCC [Compound 24, 1,1-Di-n-propyl-2-pentyn-1-ylamine]",Inhibition of reserpine-induced catatonia,[1]; 20 mg/kg oral,1 (20 to 30% inhibition of catatonia in comparison with the controls (namely a score of 7 to 8 per studied batch))
same,Inhibition of the neuroleptic-induced catatonia,[2]; 20 mg/kg oral,2 (50% inhibition of catationia in comprison with the controls (namely a score of 5 per studied batch))
"CCCCC(N)(CC)CCC (stereo not drawn) [Compound 4, 1-Ethyl-1-n-propyl-n-pentylamine]",Inhibition of reserpine-induced catatonia,[1]; 20 mg/kg oral,3 (70 to 80% inhibition of catatonia in comparison with the controls (namely a score of 2 or 3 per studied batch))
same,Inhibition of the neuroleptic-induced catatonia,[2]; 20 mg/kg oral,3 (70 to 80% inhibition of catatonia in comparison with the controls (namely a score of 2 or 3 per studied batch))
"CCCC(N)(CCC)C(C)(C)C [Compound 20, 1-n-Propyl-1-tert-butyl-n-butylamine]",Inhibition of reserpine-induced catatonia,[1]; 6 mg/kg oral,2 (50% inhibition of catationia in comprison with the controls (namely a score of 5 per studied batch))
same,Inhibition of the neuroleptic-induced catatonia,[2]; 50 mg/kg oral,1 (20 to 30% inhibition of catatonia in comparison with the controls (namely a score of 7 to 8 per studied batch))
"CCC=CC(N)(CC)CC [Compound 23, 1,1-Diethyl-2-penten-1-ylamine]",Inhibition of reserpine-induced catatonia,[1]; 60 mg/kg oral,1 (20 to 30% inhibition of catatonia in comparison with the controls (namely a score of 7 to 8 per studied batch))
same,Inhibition of the neuroleptic-induced catatonia,[2]; 30 mg/kg oral,1 (20 to 30% inhibition of catatonia in comparison with the controls (namely a score of 7 to 8 per studied batch))
"CCC(N)(CC)CC [Compound 15, 1,1-Diethyl-n-propylamine]",Inhibition of reserpine-induced catatonia,[1]; 50 mg/kg oral,1 (20 to 30% inhibition of catatonia in comparison with the controls (namely a score of 7 to 8 per studied batch))
same,Inhibition of the neuroleptic-induced catatonia,[2]; 50 mg/kg oral,3 (70 to 80% inhibition of catatonia in comparison with the controls (namely a score of 2 or 3 per studied batch))
"C#CC(N)(CCC)CCC [Compound 21, 1,1-Di-n-propyl-2-propyn-1-ylamine]",Inhibition of reserpine-induced catatonia,[1]; 30 mg/kg oral,2 (50% inhibition of catationia in comprison with the controls (namely a score of 5 per studied batch))
same,Inhibition of the neuroleptic-induced catatonia,[2]; 30 mg/kg oral,1 (20 to 30% inhibition of catatonia in comparison with the controls (namely a score of 7 to 8 per studied batch))
"CCCCCCCC(C)(C)N [Compound 10, 1,1-Dimethyl-n-octylamine]",Inhibition of reserpine-induced catatonia,[1]; 20 mg/kg oral,1 (20 to 30% inhibition of catatonia in comparison with the controls (namely a score of 7 to 8 per studied batch))
same,Inhibition of the neuroleptic-induced catatonia,[2]; 50 mg/kg oral,1 (20 to 30% inhibition of catatonia in comparison with the controls (namely a score of 7 to 8 per studied batch))
"CCCC(C)CC(C)(N)CC (stereo not drawn) [Compound 7, 1,3-Dimethyl-1-ethyl-n-hexylamine]",Inhibition of reserpine-induced catatonia,[1]; 20 mg/kg oral,1 (20 to 30% inhibition of catatonia in comparison with the controls (namely a score of 7 to 8 per studied batch))
same,Inhibition of the neuroleptic-induced catatonia,[2]; 40 mg/kg oral,1 (20 to 30% inhibition of catatonia in comparison with the controls (namely a score of 7 to 8 per studied batch))
"CCCC(CC)CC(C)(C)N (stereo not drawn) [Compound 17, 1,1-Dimethyl-3-ethyl-n-hexylamine]",Inhibition of reserpine-induced catatonia,[1]; 11 mg/kg oral,1 (20 to 30% inhibition of catatonia in comparison with the controls (namely a score of 7 to 8 per studied batch))
same,Inhibition of the neuroleptic-induced catatonia,[2]; 11 mg/kg oral,2 (50% inhibition of catationia in comprison with the controls (namely a score of 5 per studied batch))
"CN1[C@@H]2CC[C@H]1C[C@@H](OC(=O)C(CO)c1ccccc1)C2 (stereo partly drawn) [Atropine, reference compound]",% of inhibition of the spasm,[3]; 0.1 × 10^-6 g/ml of bath,45%
same,% of inhibition of the spasm,[3]; 0.2 × 10^-6 g/ml of bath,100%
"CCC(C)(C)N [Compound 16, 1,1-Dimethyl-n-propylamine]",Inhibition of reserpine-induced catatonia,[1]; 50 mg/kg oral,1 (20 to 30% inhibition of catatonia in comparison with the controls (namely a score of 7 to 8 per studied batch))
same,Inhibition of the neuroleptic-induced catatonia,[2]; 10 mg/kg oral,1 (20 to 30% inhibition of catatonia in comparison with the controls (namely a score of 7 to 8 per studied batch))
